Laboratory results taken from PubChem BioAssay AID330 (DTP/NCI, 2004).
Several values for one entry are separate records, joined by “and”; a condition that tells them apart may be missing. Equal entries are not always repeated. Toxic doses and inconclusive results are not listed.

System: P388 leukemia ip, CD2F1 mice, survival T/C
Test: NCI In Vivo Anticancer Drug Screen. Data for tumor model P388 Leukemia (intraperitoneal) in CD2F1 (CDF1) mice
Conditions: endpoint: median survival time, higher = longer survival
Method in brief: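 Mice carrying the transplanted tumor received test compound or vehicle. Survival was recorded in each group, and the value is the treated-group measurement divided by that of the vehicle-treated control group.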

[1] = dose: 50.0 mg/kg/injection, schedule: Q01DX009 (ip), vehicle: Klucel (hydroxypropylcellulose) (HPC)
[2] = dose: 100.0 mg/kg/injection, schedule: Q01DX009 (ip), vehicle: Klucel (hydroxypropylcellulose) (HPC)
[3] = dose: 200.0 mg/kg/injection, schedule: Q01DX009 (ip), vehicle: Klucel (hydroxypropylcellulose) (HPC)
[4] = dose: 12.5 mg/kg/injection, schedule: Q01DX009 (ip), vehicle: saline
[5] = dose: 25.0 mg/kg/injection, schedule: Q01DX009 (ip), vehicle: saline
[6] = dose: 50.0 mg/kg/injection, schedule: Q01DX005 (ip), vehicle: saline
[7] = dose: 100.0 mg/kg/injection, schedule: Q01DX005 (ip), vehicle: saline
[8] = dose: 200.0 mg/kg/injection, schedule: Q01DX005 (ip), vehicle: saline

SMILES: Cc1cc(-c2nc(-c3cc(C)c(O)c(C)c3)nc(-c3cc(C)c(O)c(C)c3)n2)cc(C)c1O
- T/C (dose: 50.0 mg/kg/injection, schedule: Q04DX003 (ip), vehicle: Klucel (hydroxypropylcellulose) (HPC)): 100 % of control
- T/C (dose: 100.0 mg/kg/injection, schedule: Q04DX003 (ip), vehicle: Klucel (hydroxypropylcellulose) (HPC)): 106 % of control
- T/C (dose: 200.0 mg/kg/injection, schedule: Q04DX003 (ip), vehicle: Klucel (hydroxypropylcellulose) (HPC)): 105 % of control

SMILES: O=C(O)c1cc(-c2ccc(O)c(O)c2)nc2cc3ccccc3cc12
- T/C [1]: 97 % of control
- T/C [2]: 108 % of control
- T/C [3]: 92 % of control

SMILES: O=C1c2ccccc2C(Br)CCC1Br (stereo not given)
- T/C (dose: 100.0 mg/kg/injection, schedule: Q01DX009 (ip), vehicle: distilled water + Tween-80 + alcohol): 115 % of control
- T/C (dose: 200.0 mg/kg/injection, schedule: Q01DX009 (ip), vehicle: distilled water + Tween-80 + alcohol): 115 % of control
- T/C (dose: 400.0 mg/kg/injection, schedule: Q01DX009 (ip), vehicle: distilled water + Tween-80 + alcohol): 113 % of control

SMILES: C=C(C)c1nc(N(C)C)nc(N(C)C)n1
- T/C (dose: 30.0 mg/kg/injection, schedule: Q01DX005 (ip), vehicle: Klucel (hydroxypropylcellulose) (HPC)): 98 % of control
- T/C (dose: 60.0 mg/kg/injection, schedule: Q01DX005 (ip), vehicle: Klucel (hydroxypropylcellulose) (HPC)): 88 % of control and 95 % of control
- T/C (dose: 120.0 mg/kg/injection, schedule: Q01DX005 (ip), vehicle: Klucel (hydroxypropylcellulose) (HPC)): 88 % of control

SMILES: CCCCCCC(=O)OCCN1CCN(CC/C=C2\c3ccccc3Sc3ccc(C(F)(F)F)cc32)CC1
- T/C [4]: 100 % of control and 95 % of control
- T/C (dose: 12.5 mg/kg/injection, schedule: Q01DX009 (ip), vehicle: suspension in saline): 98 % of control
- T/C [5]: 112 % of control
- T/C (dose: 25.0 mg/kg/injection, schedule: Q01DX009 (ip), vehicle: suspension in saline): 102 % of control and 94 % of control
- T/C (dose: 50.0 mg/kg/injection, schedule: Q01DX009 (ip), vehicle: saline): 106 % of control and 95 % of control
- T/C (dose: 50.0 mg/kg/injection, schedule: Q01DX009 (ip), vehicle: suspension in saline): 100 % of control and 123 % of control and 92 % of control
- T/C (dose: 100.0 mg/kg/injection, schedule: Q01DX009 (ip), vehicle: saline): 99 % of control and 113 % of control
- T/C (dose: 100.0 mg/kg/injection, schedule: Q01DX009 (ip), vehicle: suspension in saline): 107 % of control (2×) and 92 % of control

SMILES: Cc1cc(NCCCCCCCCNc2cc(C)nc3cc(N)ccc23)c2ccc(N)cc2n1
- T/C (dose: 0.78 mg/kg/injection, schedule: Q01DX009 (ip), vehicle: water): 119 % of control
- T/C (dose: 1.56 mg/kg/injection, schedule: Q01DX009 (ip), vehicle: water): 123 % of control

SMILES: O=Cc1cccc(S(=O)(=O)O)c1
- T/C (dose: 60.0 mg/kg/injection, schedule: Q01DX005 (ip), vehicle: saline): 100 % of control
- T/C (dose: 120.0 mg/kg/injection, schedule: Q01DX005 (ip), vehicle: saline): 94 % of control
- T/C (dose: 240.0 mg/kg/injection, schedule: Q01DX005 (ip), vehicle: saline): 102 % of control

SMILES: COC(=O)CC1OCC=C2CN3CCC45C6=CC(=O)C(=O)C([N+](=O)[O-])=C6NC4C1C2CC35 (stereo not given)
- T/C (dose: 7.5 mg/kg/injection, schedule: Q01DX005 (ip), vehicle: suspension in saline): 101 % of control
- T/C (dose: 15.0 mg/kg/injection, schedule: Q01DX005 (ip), vehicle: suspension in saline): 100 % of control

SMILES: COc1cc2c(cc1C(C)c1ccc(Cl)cc1)OCO2 (stereo not given)
- T/C (dose: 50.0 mg/kg/injection, schedule: Q01DX005 (ip), vehicle: saline with Tween-80): 99 % of control
- T/C (dose: 100.0 mg/kg/injection, schedule: Q01DX005 (ip), vehicle: saline with Tween-80): 108 % of control
- T/C (dose: 200.0 mg/kg/injection, schedule: Q01DX005 (ip), vehicle: saline with Tween-80): 101 % of control

SMILES: COP(=O)(OC)C1(C(C)(C)C)CO1 (stereo not given)
- T/C [1]: 99 % of control
- T/C [2]: 88 % of control
- T/C [3]: 94 % of control

SMILES: CC1(O)C=CC(=O)C=C1
- T/C (dose: 1.56 mg/kg/injection, schedule: Q01DX009 (ip), vehicle: distilled water + Tween-80): 103 % of control
- T/C (dose: 3.13 mg/kg/injection, schedule: Q01DX009 (ip), vehicle: distilled water + Tween-80): 102 % of control
- T/C (dose: 6.25 mg/kg/injection, schedule: Q01DX009 (ip), vehicle: distilled water + Tween-80): 109 % of control
- T/C (dose: 12.5 mg/kg/injection, schedule: Q01DX009 (ip), vehicle: distilled water + Tween-80): 109 % of control

SMILES: C=C1C(=O)OC2C1CCC(C)=C1C(=O)C=C(C)C12 (stereo not given)
- T/C (dose: 50.0 mg/kg/injection, schedule: Q04DX003 (ip), vehicle: saline with Tween-80): 109 % of control
- T/C (dose: 100.0 mg/kg/injection, schedule: Q04DX003 (ip), vehicle: saline with Tween-80): 116 % of control
- T/C (dose: 200.0 mg/kg/injection, schedule: Q04DX003 (ip), vehicle: saline with Tween-80): 119 % of control

SMILES: CCC(=O)Cc1nc2nnc(N)n2nc1CC(=O)CC
- T/C [6]: 100 % of control
- T/C [7]: 107 % of control
- T/C [8]: 98 % of control

SMILES: COC1(OC)C2(Cl)C(Cl)=C(Cl)C1(Cl)C1CCCCC12 (stereo not given)
- T/C (dose: 60.0 mg/kg/injection, schedule: Q01DX005 (ip), vehicle: saline with Tween-80): 101 % of control
- T/C (dose: 120.0 mg/kg/injection, schedule: Q01DX005 (ip), vehicle: saline with Tween-80): 102 % of control
- T/C (dose: 240.0 mg/kg/injection, schedule: Q01DX005 (ip), vehicle: saline with Tween-80): 104 % of control

SMILES: COC(=O)/C=C/c1cc[n+]([O-])cc1
- T/C [6]: 93 % of control
- T/C [7]: 101 % of control
- T/C [8]: 101 % of control

SMILES: Nc1ccc(-c2ccc(N)cc2)cc1
- T/C (dose: 100.0 mg/kg/injection, schedule: Q01DX009 (ip), vehicle: saline with Tween-80): 90 % of control
- T/C (dose: 200.0 mg/kg/injection, schedule: Q01DX009 (ip), vehicle: saline with Tween-80): 100 % of control
- T/C (dose: 400.0 mg/kg/injection, schedule: Q01DX009 (ip), vehicle: saline with Tween-80): 95 % of control

SMILES: CC(=O)NCC(O)CNC(C)=O
- T/C (dose: 6.25 mg/kg/injection, schedule: Q01DX009 (ip), vehicle: saline): 103 % of control
- T/C [4]: 97 % of control
- T/C [5]: 95 % of control

SMILES: Cc1[nH]c(C)c2ccc(=O)ccc12
- T/C (dose: 30.0 mg/kg/injection, schedule: Q01DX005 (ip), vehicle: suspension in saline): 101 % of control
- T/C (dose: 60.0 mg/kg/injection, schedule: Q01DX005 (ip), vehicle: suspension in saline): 94 % of control and 97 % of control
- T/C (dose: 120.0 mg/kg/injection, schedule: Q01DX005 (ip), vehicle: suspension in saline): 88 % of control
- T/C (dose: 240.0 mg/kg/injection, schedule: Q01DX005 (ip), vehicle: suspension in saline): 93 % of control

SMILES: Cc1nc2ccccc2c(=O)n1NC(=S)Nc1ccc(Cl)cc1
- T/C (dose: 100.0 mg/kg/injection, schedule: Q04DX002 (ip), vehicle: saline with Tween-80): 90 % of control
- T/C (dose: 200.0 mg/kg/injection, schedule: Q04DX002 (ip), vehicle: saline with Tween-80): 88 % of control
- T/C (dose: 400.0 mg/kg/injection, schedule: Q04DX002 (ip), vehicle: saline with Tween-80): 90 % of control

SMILES: CC(C)(C)OC(=O)NC1CCC2CCCCC2C1 (stereo not given)
- T/C (dose: 100.0 mg/kg/injection, schedule: Q04DX003 (ip), vehicle: saline): 100 % of control
- T/C (dose: 200.0 mg/kg/injection, schedule: Q04DX003 (ip), vehicle: saline): 104 % of control
- T/C (dose: 400.0 mg/kg/injection, schedule: Q04DX003 (ip), vehicle: saline): 100 % of control

SMILES: CC1(C)C(=O)OC(n2cc(F)c(=O)[nH]c2=O)C1=O (stereo not given)
- T/C (dose: 11.25 mg/kg/injection, schedule: Q04DX002 (ip), vehicle: distilled water + Tween-80): 105 % of control
- T/C (dose: 22.5 mg/kg/injection, schedule: Q04DX002 (ip), vehicle: distilled water + Tween-80): 105 % of control
- T/C (dose: 45.0 mg/kg/injection, schedule: Q04DX002 (ip), vehicle: distilled water + Tween-80): 116 % of control
- T/C (dose: 45.0 mg/kg/injection, schedule: Q04DX002 (ip), vehicle: saline with Tween-80): 110 % of control
- T/C (dose: 90.0 mg/kg/injection, schedule: Q04DX002 (ip), vehicle: distilled water + Tween-80): 116 % of control
- T/C (dose: 360.0 mg/kg/injection, schedule: Q04DX002 (ip), vehicle: distilled water + Tween-80): 90 % of control
- T/C (dose: 360.0 mg/kg/injection, schedule: Q04DX002 (ip), vehicle: saline with Tween-80): 160 % of control

SMILES: C/C1=C2N=C(/C=C3N=C(/C(C)=C4\[N-]C(C(CC(N)=O)C4(C)CCC(=O)NCC(C)OP(=O)(O)OC4C(CO)OC(n5cnc6cc(C)c(C)cc65)C4O)C4(C)N=C1C(CCC(N)=O)C4(C)CC(N)=O)C(CCC(N)=O)C\3(C)C)C(CCC(N)=O)C/2(C)CC(N)=O.[CH2-]C1OC(n2cnc3c(N)ncnc32)C(O)C1O.[Co+2] (stereo not given)
- T/C (dose: 8.8 micrograms/kg/injection, schedule: Q#A X Z (ip), vehicle: water): 90 % of control
- T/C (dose: 88.3 micrograms/kg/injection, schedule: Q#A X Z (ip), vehicle: water): 97 % of control
- T/C (dose: 8830.0 micrograms/kg/injection, schedule: Q#A X Z (ip), vehicle: water): 89 % of control
